According to ChEMBL document CHEMBL5543071, “Benzopyran hydrazones with dual PPARα/γ or PPARα/δ agonism and an anti-inflammatory effect on human THP-1 macrophages” (Eur J Med Chem, 2024):

Columns and labels:
[1] = test system: THP-1; test: Cytotoxicity against human THP-1 cells assessed as reduction in cell viability at 10 to 30 uM incubated for 72 hrs; type: toxicity, cell-based; details: thp-1, 72 h, dose 10-30 µM
[2] = test system: THP-1; test: Cytotoxicity against human THP-1 cells assessed as reduction in cell viability at 100 uM incubated for 72 hrs; type: toxicity, cell-based; details: thp-1, 72 h
[3] = biological target: T1, Peroxisome proliferator-activated receptor gamma (Homo sapiens, UniProt P37231); type: cell-based, COS7
T1 sequence (P37231 whole entry): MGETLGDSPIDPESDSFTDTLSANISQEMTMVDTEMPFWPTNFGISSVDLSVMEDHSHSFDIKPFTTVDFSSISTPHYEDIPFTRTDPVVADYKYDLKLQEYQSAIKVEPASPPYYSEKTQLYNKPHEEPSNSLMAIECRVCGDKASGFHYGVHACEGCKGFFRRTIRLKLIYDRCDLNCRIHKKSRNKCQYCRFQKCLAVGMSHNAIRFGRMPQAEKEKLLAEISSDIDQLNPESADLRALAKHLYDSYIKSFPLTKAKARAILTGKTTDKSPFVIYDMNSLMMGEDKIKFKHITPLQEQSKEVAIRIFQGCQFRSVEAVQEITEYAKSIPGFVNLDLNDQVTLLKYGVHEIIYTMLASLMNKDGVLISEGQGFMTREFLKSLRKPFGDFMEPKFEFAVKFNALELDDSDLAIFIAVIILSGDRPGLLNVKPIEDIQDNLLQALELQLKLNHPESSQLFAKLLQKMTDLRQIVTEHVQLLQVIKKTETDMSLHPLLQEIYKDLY
Description: Agonist activity at human PPARgamma transfected in african green monkey COS7 cells assessed transcriptional activation incubated for 24 hrs by luciferase assay

Row | SMILES | Activity [1] | Activity [2] | EC50 [3] [µM]
1 | C/C(=C\CCC1(C)CCc2cc(OCc3ccc(F)cc3)ccc2O1)CC/C=N/Nc1ncc(Cl)cc1C(F)(F)F (stereo not given) | Non-Toxic | – | –
2 | CC1(CC/C=N/Nc2nc3ccccc3s2)CCc2cc(OCc3ccc(F)cc3)ccc2O1 (stereo not given) | Non-Toxic | – | –
3 | CC1(CC/C=N/Nc2ncc(Cl)cc2C(F)(F)F)CCc2cc(OCc3ccc(F)cc3)ccc2O1 (stereo not given) | Non-Toxic | Toxic | 5.54
